Where “and” joins values, the source holds several entries; their conditions need not be identical. Equal values may be shown once. Entries after “also recorded” stand apart in the source; their conditions may differ.
Assays:
Format in all cases: in vivo
[1] = system: C57BL/6J mice subjected to ICH; experiment: Brain water content (edema) after ICH; settings: for brain water content versus vehicle: 1 mg/kg i.p. first at 6 h and 12 h after ICH
Experimental: (§1) Animal Preparation and Intracerebral Infusion. Adult male C57BL/6J mice weighing 23-30 g were used. Mice were randomized to receive intraperitoneal injection of either C3aRA (1 mg/kg) (SB290157, Calbiochem, Darmstadt, Germany) diluted in PBS and DMSO (1.16% v/v), or an equal volume of vehicle (PBS and DMSO, 1.16% DMSO v/v) either 45 minutes prior to ICH induction or 6 and 12 hours after induction of ICH, followed in both cohorts by twice daily doses for 72 hours. […] Sham animals were given PBS and DMSO (1.16% v/v) in the same manner.
Mice were anesthetized with a single intraperitoneal dose of ketamine (90 mg/kg) and xylazine (5 mg/kg). Next, the mice were placed in a stereotactic frame (ASI Instruments, Inc., Warren, Mich., USA) and subjected to ICH using autologous blood infusion as previously described (Rynkowski M A et al, 2008, Nat Protoc 3: 122-128), Briefly, a 1-mm burr hole was drilled 2.3 mm lateral to the midline and 0.2 mm anterior to the bregma. Thirty μL of autologous whole blood were drawn from the tail artery into a capillary tube. A 30-gauge needle was then advanced stereotactically through the burr hole into the right striatum (coordinates: 0.2 mm anterior, 2.3 mm lateral to the bregma, 3.5 mm ventral). Using a microinfusion pump (KDS220, KD Scientific Inc., Holliston, Mass., USA), 5 μL was delivered at a rate of 1.5 μL per minute. After a 7-minute period, an additional 25 μL was delivered at a constant rate of 1.5 μL per minute. After a period of 10 minutes, the needle was slowly removed, the burr hole was occluded with bone wax and the skin incision was closed with Nexaband® (Abbott Laboratories, North Chicago, Ill.). Sham animals received only needle insertion. Rectal temperature was maintained at 37.0° C. using a feedback-controlled heating lamp, and the animals recovered in a temperature-controlled incubator for 45 minutes post-procedure.
Determination of brain water content. Mice were reanesthetized with Ketamine (80-100 mg/kg i.p.), Xylazine (5-10 mg/kg i.p.) and sacrificed 3 days post-hemorrhage to determine brain water content (sham vehicle n=8 Pre-C3aRA n=8, Post-C3aRA n=11). Brains were removed immediately en bloc and five 2-mm coronal slices were obtained beginning 2-mm from the frontal pole. The brain slices were divided into two hemispheres along the midline. The cortex of each hemisphere was then carefully dissected from the basal ganglia. The cerebellum was retained as a control. Each of the five sections was then weighed on an electronic analytical balance (Model AG 104, Mettler-Toledo, Inc., Columbus, Ohio, USA) to determine the wet weight. The sections were then placed onto pre-weighed cover slips and dried overnight in a vacuum oven for 24 hours to obtain the dry weight. Brain water content (%) was calculated as: ((wet weight-dry weight)/wet weight)×100.
Animal Preparation and Intracerebral Infusion. Adult male C57BL/6J mice weighing 23-30 g were randomized to receive intraperitoneal injection of either C3aRA (1 mg/kg) (SB290157, Calbiochem, Darmstadt, Germany), C5aRA (1 mg/kg), combined C3aRA and C5aRA or an equal volume of DMSO. Each drug was diluted in PBS (1.16% v/v) and given 6 and 12 hours after ICH induction, followed by twice daily doses for 72 hours. The sham group of animals was given PBS and DMSO (1.16% v/v) in the same manner. Mice were anesthetized with a single intraperitoneal dose of ketamine (90 mg/kg) and xylazine (5 mg/kg). […]

[2] = system: C57BL/6J mice subjected to ICH; experiment: Corner turn test (laterality index) after ICH; settings: for corner turn test (laterality index): 1 mg/kg i.p. first at 6 h and 12 h after ICH, then twice daily for 72 hours, versus vehicle
Experimental: as §1
Mice were anesthetized with a single intraperitoneal dose of ketamine (90 mg/kg) and xylazine (5 mg/kg). Next, the mice were placed in a stereotactic frame (ASI Instruments, Inc., Warren, Mich., USA) and subjected to ICH using autologous blood infusion as previously described (Rynkowski M A et al, 2008, Nat Protoc 3: 122-128), Briefly, a 1-mm burr hole was drilled 2.3 mm lateral to the midline and 0.2 mm anterior to the bregma. Thirty μL of autologous whole blood were drawn from the tail artery into a capillary tube. A 30-gauge needle was then advanced stereotactically through the burr hole into the right striatum (coordinates: 0.2 mm anterior, 2.3 mm lateral to the bregma, 3.5 mm ventral). […]
Neurofunction and behavioral testing. Sensorimotor function was evaluated by means of the 28-point neurological function score, corner test and forelimb placing tests, which were performed pre-operatively and at 6, 24, 48 and 72 hour post-injury. Navigational memory was evaluated with the means of a Morris water-maze (MWM) test pre-operatively and at 72 hours post ICH. […]
Corner test. […] The number of right and left turns out of 10 total attempts was recorded. The laterality index (LI) and normalized LI were calculated. The laterality index (LI) was calculated for each mouse, according to the formula: LI=(Number of right turns—Number of left turns)/(Total number of turns). The LI for the day before surgery (LIBS) and each of the post surgery days was calculated and normalized using the formula: Normalized LI=(LI+2)/(LIBS+2). […]

[3] = system: model of focal ischemic stroke; experiment: Dose-response trial in a model of focal ischemic stroke; settings: comparing 0.1, 0.5, 1 and 5 mg/kg
[4] = 1 mg/kg i.p. 45 minutes prior to ICH, then twice daily, 72 hours after ICH, mean±SEM
[5] = then twice daily, 72 hours after ICH

Row | Molecule | brain water content, ipsilateral basal ganglia [1, 4] | brain water content, ipsilateral cortex [1, 4] | brain water content versus vehicle [1, 5] | water content in the contralateral cortex, the basal ganglia and cerebellum ([1]; pre-ICH dosing 1 mg/kg i.p., 72 hours, versus vehicle-treated and sham) | corner test performance (normalized laterality index) ([2]; 1 mg/kg i.p. 45 minutes prior to ICH, then twice daily, 72 hours after ICH) | corner turn test (laterality index) [2] | most effective dose [3]
1 | NC(N)=NCCC[C@H](NC(=O)COCC(c1ccccc1)c1ccccc1)C(=O)O [C3aRA] | 77.43±0.43% | 77.56±0.26% and 77.57±0.26% | mildly decreased brain water content; also recorded: Trend towards decreased edema | not different | no significant deficits compared with sham animals | significant improvement at 48 hours | 1 mg/kg
2 | Acetyl-Phe-[Orn-Pro-D-cyclohexylalanine-Trp-Arg] [C5aRA] | – | – | mildly decreased brain water content | – | – | significant improvement at 48 hours | –
